Data: ChEMBL document CHEMBL5674860, “Optimized Dual-Glo Assay to identify co-culture-induced drug vulnerabilities in 3D CRC models” (2024)

Experiments:
Format in all cases: functional, Homo sapiens
Set-up in all cases: dose or concentration left out as unconfirmed
Colon cancer organoid [1] = assay: Optimized Dual-Glo assay to identify co-culture induced drug vulnerabilities using donated chemical probes and chemogenomics kinase set in O20 CRC organoid and F20 CAF mono and co-culture. […] Cell viability is reported both mono and co-culture models.
Colon cancer organoid [2] = assay: Optimized Dual-Glo assay to identify co-culture induced drug vulnerabilities using donated chemical probes and chemogenomics kinase set in O14 CRC organoid and F14 CAF mono and co-culture. […] Cell viability is reported both mono and co-culture models.
Colon cancer organoid [3] = assay: Optimized Dual-Glo assay to identify co-culture induced drug vulnerabilities using donated chemical probes and chemogenomics kinase set in O06 CRC organoid and F06 CAF mono and co-culture. […] Cell viability is reported both mono and co-culture models.
[4] = Culture type Co-Culture, Transduced with Lucferase2-P2A-EGFP lentivirus
[5] = Culture type Co-Culture, Transduced with Renilla-dsRed lentivirus
[6] = Culture type Mono-Culture, Transduced with Lucferase2-P2A-EGFP lentivirus
[7] = Culture type Mono-Culture, Transduced with Renilla-dsRed lentivirus

Row | Structure (SMILES) | Cell Viability (Colon cancer organoid [1]; [4]) [%] | Cell Viability (Colon cancer organoid [1]; [5]) [%] | Cell Viability (Colon cancer organoid [1]; [6]) [%] | Cell Viability (Colon cancer organoid [1]; [7]) [%] | Cell Viability (Colon cancer organoid [2]; [4]) [%] | Cell Viability (Colon cancer organoid [2]; [5]) [%] | Cell Viability (Colon cancer organoid [2]; [6]) [%] | Cell Viability (Colon cancer organoid [2]; [7]) [%] | Cell Viability (Colon cancer organoid [3]; [4]) [%] | Cell Viability (Colon cancer organoid [3]; [5]) [%] | Cell Viability (Colon cancer organoid [3]; [6]) [%] | Cell Viability (Colon cancer organoid [3]; [7]) [%]
1 | CCNC(=O)c1cc2c(N3CCOCC3C)ccnc2[nH]1 (stereo unspecified) | 144.452 | 100.256 | 103.659 | 101.624 | 86.1024 | 100.89 | 87.7409 | 81.9796 | 131.632 | 146.353 | 109.161 | 91.669
2 | O=C(c1ccc(C(=O)N2CCC(N3CCCC3)CC2)c(Nc2ccccc2)c1)N1CCC(N2CCCC2)CC1 | 128.422 | 96.2949 | 123.486 | 97.1366 | 102.524 | 98.4049 | 104.115 | 98.5481 | 108.091 | 96.0319 | 93.2966 | 98.6037
3 | C[C@H](NC(=O)Nc1cc2[nH]ncc2c(CO)n1)c1ccccn1 [ERKi-NC] | 108.541 | 124.126 | 136.018 | 90.7734 | 88.9935 | 102.074 | 55.928 | 92.432 | 88.473 | 87.7291 | 101.937 | 116.172
4 | CNCc1ccccc1-c1csc([C@@H](C)Nc2nc(C)nc3cc(OC)c(OC)cc23)c1 [BAY-293] | 78.2703 | 145.24 | 64.4683 | 82.7466 | 46.6211 | 132.811 | 47.2835 | 107.217 | 76.9111 | 225.989 | 4.78 | 87.8539
5 | CN1C[C@H](Nc2cnn(C)c(=O)c2Br)C[C@H](c2ccccc2)C1 | 159.897 | 106.068 | 104.311 | 120.493 | 72.8555 | 143.992 | 98.7271 | 111.977 | 52.3497 | 181.327 | 101.698 | 109.538
6 | N#CN1CC[C@@H](C(=O)Nc2nc3c(s2)CN(C(=O)CN=[N+]=[N-])CC3)C1 [JYQ88] | 63.8809 | 84.2967 | 72.0417 | 77.9243 | 85.6014 | 100.681 | 114.259 | 88.3695 | 72.1963 | 58.5555 | 71.7367 | 79.6546
7 | CN1CCN(c2ccnc(NCCc3ccccc3)n2)CC1 [TP-040n] | 67.1911 | 97.5889 | 115.175 | 123.14 | 93.1561 | 99.6193 | 147.697 | 101.671 | 79.4477 | 81.2059 | 106.155 | 134.56
8 | COc1cc2c(cc1OCCCN1CCCC1)N=C(N)C21CCC1 | 75.7779 | 100.254 | 68.8586 | 68.8682 | 71.4641 | 82.9559 | 58.4791 | 57.8128 | 84.9948 | 83.704 | 86.6673 | 61.562
